Experimental findings from ChEMBL document CHEMBL4837230, “Thiophene-2-carboxamide derivatives of anthraquinone: A new potent antitumor chemotype” (Eur J Med Chem, 2021) are described below.

SMILES strings stand for the structures. The source made the active and inactive calls. No cut-off for these calls is given here.

Experiment [1] has as its system K562. Description: Induction of apoptosis in human K562 cells assessed as late apoptotic cells after 3 hrs by Annexin V-APC/PI double staining based flow cytometric analysis (reference value: 2.6%). Type of experiment: functional. (In flow cytometry, cells or beads pass a laser one at a time.)
Experiment [2] relates to K562. Description: Induction of apoptosis in human K562 cells assessed as activation of casapse-9 cleavage at 2.5 uM measured after 6 hrs by Western blot analysis. In kind it is functional, cell-based.

On to `N[C@H]1CCN(C(=O)c2cc3c(O)c4c(c(O)c3s2)C(=O)c2ccccc2C4=O)C1`, for which, in experiment [1], the Activity is on record as 13.2%. In experiment [2], the outcome was Active.
